# Data: paper PMC10525570, “Antiviral Activity of Anthranilamide Peptidomimetics against Herpes Simplex Virus 1 and a Coronavirus” (Antibiotics, 2023)
# “Also recorded” adds a separate entry of the source. Read-outs that look alike come from different tables or passages of the source.
# Legend:
# [1] = system: HSV-1; experiment: Virus pre-treatment (direct virus inactivation) plaque assay, HSV-1; type: cell-based, herpes simplex virus 1
# Method: (§1) The peptidomimetics were evaluated for their antiviral activity using three different assays: virus pre-treatment, cell pre-treatment, and post-treatment assays, with the main distinction being the timing of the compound addition. Cells were seeded in 24-well plates at a density of 2.5 × 10^5 cells/well and incubated for 48 h at 37 °C. In all assays, the compounds were added to DMEM medium in the absence of fetal bovine serum (FBS). All experiments were performed in duplicate with two independent replicates. The inhibitory effect on viral infectivity was determined by comparing the number of plaques in wells treated with the test compounds (peptidomimetics) to the plaques observed in the control wells (cells infected with the virus without test compounds).
# (§2) Virus pre-treatment assay: In this assay, the test compounds were added to the virus (1 × 10^3 PFU/mL) and incubated for 3 h at 37 °C. After incubation, each mixture (virus/peptide) was diluted in DMEM medium containing 10% FBS to neutralize the peptides or mimics. The dilutions were then added to the cell monolayers for 1 h, followed by the addition of an agar overlay containing 1% agar. The cells were further incubated for 72 h, after which they were fixed, stained, and the number of plaques was counted.
# [2] = system: MHV-1; experiment: Virus pre-treatment (direct virus inactivation) plaque assay, MHV-1; type: cell-based, Murine hepatitis virus 1; settings: for Plaque formation, MHV-1: quadruplicate
# Method: as §1, §2
# [3] = MTT cytotoxicity assay, Vero cells; type: cell-based; settings: African green monkey, read-out: HSV-1 (Vero Cells) CC50
# Method: (§3) The MTT assay was used to assess the cytotoxicity of compounds against the viral host (A9 and Vero) cells. This assay relies on the reduction of the yellow MTT compound to a dark blue formazan product by viable and metabolically active cells. Viral host cells were cultured in 96-well plates and incubated at 37 °C in a 5% CO2 atmosphere, treated with various concentrations of the test compounds together with further incubation for 24 h. After incubation, 100 μL of a 5 mg/mL MTT solution was added to each well and incubated for 2–4 h at 37 °C. The supernatant was then discarded, and 100 μL of 100% DMSO was added to dissolve the formazan salts with vigorous agitation for 10 min at room temperature. The absorbance at 540 nm was measured using a spectrophotometer. Cytotoxicity was determined by comparing the absorbance values in the test and control wells expressed as a percentage. A total of 100 μL DMSO was used for negative control (ctr−), while 100 μL of culture medium represented the positive control (ctr+). All experiments were repeated three times, and the mean values with standard deviations are reported. Nonlinear regression analysis was performed using GraphPad Prism software to determine the CC50 (concentration at which 50% of cells are killed).
# [4] = system: MHV-1; experiment: Transmission electron microscopy of treated MHV-1; set-up: species or system Murine hepatitis virus 1; settings: virus treated at 37 °C for 2 h
# Method: (§4) The viruses were treated with compound 11 for MHV-1 and 14 for HSV-1, both at 37 °C for 2 h. Subsequently, 10 µL of the treated mixture was placed on a glow-discharged carbon-coated 200 mesh copper grid and allowed to evaporate for 5 min. The sample was then stained with 1% phosphotungstic acid (pH 6.5) for 30 s to improve the contrast. After air-drying, the grids were examined using an FEI Tecnai G2 20 TEM machine.
# [5] = system: HSV-1; experiment: Post-viral infection plaque assay, HSV-1 on Vero cells; type: cell-based, herpes simplex virus 1; settings: compound added 3 h post-infection, 15.625, 7.5, 3.75 µM
# Method: (§5) In order to determine if compounds 11 and 14 were able to inhibit aspects of viral infection after the initial binding stage to host mammalian cells, the same concentrations of the compounds were administered to the cells after a 3-h interval post-infection.
# as §1
# (§6) Post-viral infection assay: The cells were first incubated with viruses (1 × 10^3 PFU/mL) for 3 h at 37 °C to ensure complete cellular entry. Following that, the test compounds were added and incubated for 24 h at 37 °C. […] The cells were then fixed, stained, and the number of plaques was determined.
# [6] = system: MHV-1; experiment: Post-viral infection plaque assay, MHV-1 on A9 cells; type: cell-based, Murine hepatitis virus 1; settings: compound added 3 h post-infection, 15.625, 7.5, 3.75 µM
# Method: as §5, §1, §6
# [7] = system: MHV-1; experiment: Cell pre-treatment plaque assay, MHV-1 on A9 cells; type: cell-based, Murine hepatitis virus 1; settings: A9 cells preincubated 24 h with 15.625, 7.5, 3.75 µM before infection
# Method: (§7) In order to explore additional potential mechanisms, the ability of compounds 11 and 14 to reduce the ability of the two viruses to bind to their respective mammalian host cells was examined. Three concentrations (15.625 µM, 7.5 µM, and 3.75 µM) of compounds 11 and 14, all below their cytotoxic thresholds, were allowed to interact with A9 and Vero cells for 24-h before virus infection. The impact of these interactions was assessed using a plaque assay to determine inhibitory effects.
# as §1, with “All experiments were performed in duplicate with two independent replicates.” left out
# (§8) Cell pre-treatment assay: The cells were treated with the test compounds and incubated for 24 h at 37 °C. […] The cells were then fixed, stained, and the number of plaques was determined.
# [8] = system: HSV-1; experiment: Cell pre-treatment plaque assay, HSV-1 on Vero cells; type: cell-based, herpes simplex virus 1; settings: Vero cells preincubated 24 h with 15.625, 7.5, 3.75 µM before infection
# Method: as §7
# as §1, with “All experiments were performed in duplicate with two independent replicates.” left out
# as §8
# [9] = MTT cytotoxicity assay, A9 cells; type: cell-based; settings: mouse, read-out: MHV-1 (A9 Cells) CC50
# Method: as §3
# [10] = system: HSV-1; experiment: Transmission electron microscopy of treated HSV-1; set-up: species or system herpes simplex virus 1; settings: virus treated at 37 °C for 2 h
# Method: as §4
# [11] = Human alphaherpesvirus 1, virus pre-treatment 3 h at 37 °C, plaque assay, read-out: HSV-1 IC50
# [12] = Murine coronavirus, virus pre-treatment 3 h at 37 °C, plaque assay, read-out: MHV-1 IC50
# [13] = Human alphaherpesvirus 1, Table 2, Vero cells, read-out: HSV-1 (Vero Cells) IC50
# [14] = Murine coronavirus, Table 2, A9 cells, read-out: MHV-1 (A9 Cells) IC50
smiles,measurement,setting,value
NCCNC(=O)C(Cc1c[nH]c2ccccc12)NC(=O)c1ccccc1NC(=O)c1ccc2ccccc2c1 (stereo not shown) [Compound 1],IC50,[1]; [11],> 62.5 µM
same,IC50,[2]; [12],> 62.5 µM
NCCNC(=O)C(Cc1c[nH]c2ccccc12)NC(=O)c1cc(Br)ccc1NC(=O)c1ccc2ccccc2c1 (stereo not shown) [Compound 2],IC50,[1]; [11],> 62.5 µM
same,IC50,[2]; [12],> 62.5 µM
NCCNC(=O)C(Cc1c[nH]c2ccccc12)NC(=O)c1cc(F)ccc1NC(=O)c1ccc2ccccc2c1 (stereo not shown) [Compound 3],IC50,[1]; [11],> 62.5 µM
same,IC50,[2]; [12],> 62.5 µM
NCCNC(=O)C(Cc1c[nH]c2ccccc12)NC(=O)c1cc(Cl)ccc1NC(=O)c1ccc2ccccc2c1 (stereo not shown) [Compound 4],IC50,[1]; [11],> 62.5 µM
same,IC50,[2]; [12],> 62.5 µM
COc1ccc(NC(=O)c2ccc3ccccc3c2)c(C(=O)NC(Cc2c[nH]c3ccccc23)C(=O)NCCN)c1 (stereo not shown) [Compound 5],IC50,[1]; [11],> 62.5 µM
same,IC50,[2]; [12],> 62.5 µM
N=C(N)NCCNC(=O)C(Cc1c[nH]c2ccccc12)NC(=O)c1ccccc1NC(=O)c1ccc2ccccc2c1 (stereo not shown) [Compound 6],IC50,[1]; [11],> 62.5 µM
same,IC50,[2]; [12],> 62.5 µM
N=C(N)NCCNC(=O)C(Cc1c[nH]c2ccccc12)NC(=O)c1cc(Br)ccc1NC(=O)c1ccc2ccccc2c1 (stereo not shown) [Compound 7],IC50,[1]; [13],32.8 µM
same,IC50,[1]; [11],32.7 µM
same,IC50,[2]; [14],> 62.5 µM
same,IC50,[2]; [12],> 62.5 µM
same,CC50 at 24 h,[3],127 µM
N=C(N)NCCNC(=O)C(Cc1c[nH]c2ccccc12)NC(=O)c1cc(F)ccc1NC(=O)c1ccc2ccccc2c1 (stereo not shown) [Compound 8],IC50,[1]; [11],> 62.5 µM
same,IC50,[2]; [12],> 62.5 µM
N=C(N)NCCNC(=O)C(Cc1c[nH]c2ccccc12)NC(=O)c1cc(Cl)ccc1NC(=O)c1ccc2ccccc2c1 (stereo not shown) [Compound 9],IC50,[1]; [13],14.9 µM
same,IC50,[1]; [11],14.8 µM
same,IC50,[2]; [14],> 62.5 µM
same,IC50,[2]; [12],> 62.5 µM
same,CC50 at 24 h,[3],45 µM
COc1ccc(NC(=O)c2ccc3ccccc3c2)c(C(=O)NC(Cc2c[nH]c3ccccc23)C(=O)NCCNC(=N)N)c1 (stereo not shown) [Compound 10],IC50,[1]; [11],> 62.5 µM
same,IC50,[2]; [12],> 62.5 µM
NCCNC(=O)C(Cc1c[nH]c2ccccc12)NC(=O)c1cc(-c2ccc3ccccc3c2)ccc1N (stereo not shown) [Compound 11],Effect on MHV-1 viral envelope (TEM),[4],disrupted viral envelope; also recorded: complete disruption of the viral envelope
same,"Antiviral activity against HSV-1, post-infection treatment",[5],no noticeable antiviral activity; also recorded: Neither of the compounds was able to affect viral replication
same,"Antiviral activity against MHV-1, post-infection treatment",[6],no noticeable antiviral activity; also recorded: Neither of the compounds was able to affect viral replication
same,"Inhibition of MHV-1 infection, cell pre-treatment",[7],none of the compounds could inhibit virus infection; also recorded: Neither of the compounds was able to affect viral replication
same,IC50,"[1]; Human alphaherpesvirus 1, read-out: HSV-1 IC50",34.9 µM
same,IC50,[1]; [13],34.9 µM
same,"Plaque formation, MHV-1",[2]; MHV-1 treated with 31.25 µM,complete inhibition of plaque formation
same,"Plaque formation, MHV-1",[2]; MHV-1 treated with 62.5 µM,complete inhibition of plaque formation
same,IC50,"[2]; Murine coronavirus, read-out: MHV-1 IC50",2.38 µM
same,IC50,[2]; [14],2.18 µM
same,inhibition at 2.18 µM,"[2]; Murine coronavirus, at 2.18 µM",> 50%
same,"Inhibition of HSV-1 infection, cell pre-treatment",[8],none of the compounds could inhibit virus infection; also recorded: Neither of the compounds was able to affect viral replication
same,CC50 at 24 h,[3],16.7 µM
same,CC50 at 24 h,[9],20.5 µM
NCCNC(=O)C(Cc1c[nH]c2ccccc12)NC(=O)c1cc(-c2ccc(-c3ccccc3)cc2)ccc1N (stereo not shown) [Compound 12],IC50,[1]; [11],> 62.5 µM
same,IC50,[2]; [12],> 62.5 µM
COc1ncc(-c2ccc(N)c(C(=O)NC(Cc3c[nH]c4ccccc34)C(=O)NCCN)c2)c(OC)n1 (stereo not shown) [Compound 13],IC50,[1]; [11],> 62.5 µM
same,IC50,[2]; [12],> 62.5 µM
NCCNC(=O)C(Cc1c[nH]c2ccccc12)NC(=O)c1cc(-c2ccccc2-c2ccccc2)ccc1N (stereo not shown) [Compound 14],"Antiviral activity against HSV-1, post-infection treatment",[5],no noticeable antiviral activity; also recorded: Neither of the compounds was able to affect viral replication
same,"Antiviral activity against MHV-1, post-infection treatment",[6],no noticeable antiviral activity; also recorded: Neither of the compounds was able to affect viral replication
same,"Inhibition of MHV-1 infection, cell pre-treatment",[7],none of the compounds could inhibit virus infection; also recorded: Neither of the compounds was able to affect viral replication
same,"Plaque formation, HSV-1",[1]; HSV-1 treated with 31.25 µM,complete inhibition of plaque formation
same,"Plaque formation, HSV-1","[1]; HSV-1 treated with 62.5 µM, four replicates",complete inhibition of plaque formation
same,IC50,[1]; [13],13 µM
same,inhibition at 13 µM,"[1]; Human alphaherpesvirus 1, at 13 µM",> 50%
same,IC50,[1]; [11],13 µM
same,IC50,[2]; [14],6.3 µM
same,IC50,[2]; [12],6.3 µM
same,"Inhibition of HSV-1 infection, cell pre-treatment",[8],none of the compounds could inhibit virus infection; also recorded: Neither of the compounds was able to affect viral replication
same,Effect on HSV-1 viral envelope (TEM),[10],partial disruption of the HSV-1 envelope; also recorded: partial destruction of the HSV-1 envelope
same,CC50 at 24 h,[3],15.2 µM
same,CC50 at 24 h,[9],10.2 µM
NCCCCC(N)C(=O)NCCNC(=O)C(Cc1c[nH]c2ccccc12)NC(=O)c1cc(Br)ccc1NC(=O)c1ccc2ccccc2c1 (stereo not shown) [Compound 15],IC50,[1]; [13],> 62.5 µM
same,IC50,[1]; [11],> 62.5 µM
same,IC50,[2]; [14],11.1 µM
same,IC50,[2]; [12],11.1 µM
same,CC50 at 24 h,[9],62.7 µM
NCCCCC(N)C(=O)NCCNC(=O)C(Cc1c[nH]c2ccccc12)NC(=O)c1cc(Br)ccc1NC(=O)c1ccc(-c2ccccc2)cc1 (stereo not shown) [Compound 16],IC50,[1]; [13],> 62.5 µM
same,IC50,[1]; [11],> 62.5 µM
same,IC50,[2]; [14],22.6 µM
same,IC50,[2]; [12],22.5 µM
same,CC50 at 24 h,[9],81.6 µM
NCCCCC(N)C(=O)NCCNC(=O)C(Cc1c[nH]c2ccccc12)NC(=O)c1cc(Br)ccc1NC(=O)c1cccc(-c2ccccc2)c1 (stereo not shown) [Compound 17],IC50,[1]; [13],> 62.5 µM
same,IC50,[1]; [11],> 62.5 µM
same,IC50,[2]; [14],11.8 µM
same,IC50,[2]; [12],11.8 µM
same,CC50 at 24 h,[9],114 µM
